The source of these data is article PMC7076857 (Toxins, 2020).

In brackets after ≈: the same amount, converted by molar mass. Read-outs that look alike come from different tables or passages of the source. Numbered stars: 1 amine (or outer) side, 2 acyl side, 3 side chain; on linkers, the order of the positions; unused ones are H or OH. Bridge positions count the residues as written; N and C are the ends. Square brackets hold non-standard residues; d marks the D form. Peptide text beside a SMILES is read from it. Adda = CO[C@@H](Cc1ccccc1)[C@@H](C)/C=C(C)/C=C/[C@H](N[*:1])[C@H](C)C(=O)[*:2]; dAsp(3S-Me) = C[C@H](C(=O)[*:3])[C@@H](N[*:1])C(=O)[*:2]; d(γGlu) = O=C(O)[C@@H](CCC(=O)[*:2])N[*:1]; NMeDha = C=C(NC)C(=O)O

Assay [1] addresses Protein phosphatase 2A (PP2A) (Homo sapiens, UniProt P67775). In kind it is biochemical. As to conditions: for IC50: read-out: IC50 (PP2A inhibition).
The subject of a further assay is PP2A. As to conditions: cited from earlier work. An excerpt:
The positive and negative LC–HRMS spectra of 1 were consistent with a molecular formula of C55H77O13N7 which, together with the presence of a prominent [M + Na]^+ adduct ion, a weak neutral loss of m/z 134.0727, and the late retention time, were consistent with a non-Arg-containing MC. […] The negative ion MS/MS spectrum obtained from the FS/DIA (full scan/data indepe ...

Chain of Protein phosphatase 2A (PP2A) (P67775 whole entry, looked up): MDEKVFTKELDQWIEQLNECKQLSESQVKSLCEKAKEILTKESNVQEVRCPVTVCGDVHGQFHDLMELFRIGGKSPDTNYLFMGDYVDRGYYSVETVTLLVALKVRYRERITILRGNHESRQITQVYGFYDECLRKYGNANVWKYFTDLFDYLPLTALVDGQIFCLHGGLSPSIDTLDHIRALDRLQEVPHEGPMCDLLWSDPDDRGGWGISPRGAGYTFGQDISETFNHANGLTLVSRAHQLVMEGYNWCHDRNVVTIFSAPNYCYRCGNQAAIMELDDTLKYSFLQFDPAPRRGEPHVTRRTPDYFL

Turning to `C=C1C(=O)N[C@H](CC(C)C)C(=O)N[C@@H](CC(C)C)C(=O)N[C@@H](C(=O)O)[C@H](C)C(=O)N[C@@H](Cc2ccc(O)cc2)C(=O)N[C@@H](/C=C/C(C)=C/[C@H](C)[C@H](Cc2ccccc2)OC)[C@H](C)C(=O)N[C@@H](C(=O)O)CCC(=O)N1C` [Compound 1, [D-Leu^1]MC-LY] (Y[Adda][d(γGlu)][NMeDha][dL]L[dAsp(3S-Me)]-OH; lactam N-7), in assay [1], the “IC50 (PP2A inhibition)” value worked out at 0.80 ng/mL (≈ 0.766 nM), the “Potency in PP2A inhibition assay relative to MC-LR (2)” value is on record as “essentially the same as for MC-LR (2)” and the IC50 is 0.76 nM.

Regarding `C=C1C(=O)N[C@H](C)C(=O)N[C@@H](CC(C)C)C(=O)N[C@@H](C(=O)O)[C@H](C)C(=O)N[C@@H](CCCNC(=N)N)C(=O)N[C@@H](/C=C/C(C)=C/[C@H](C)[C@H](Cc2ccccc2)OC)[C@H](C)C(=O)N[C@@H](C(=O)O)CCC(=O)N1C` [Compound 2, MC-LR] (R[Adda][d(γGlu)][NMeDha][dA]L[dAsp(3S-Me)]-OH; lactam N-7), the IC50 in the assay on PP2A is 0.032 nM. In addition, in assay [1], the “IC50 (PP2A inhibition)” value came out at 0.62 ng/mL (≈ 0.623 nM) and the IC50 was determined as 0.62 nM.

MC-LF [Compound 9]: the “IC50 relative to MC-LR (2), fold higher” value with PP2A (PP2A assay, MC-LF vs. MC-LR, ref 21 (Ikehara et al.)) is 3 fold. Moreover, the IC50 with PP2A (ref 21 (Ikehara et al.)) was 0.096 nM.
